Assay results taken from PubChem BioAssay AID2060891 (Molecular Pharmacology Branch, DTP, NCI, 2025).
Where “and” joins values, the source holds several entries; their conditions need not be identical. Equal entries are not always repeated.

Tested on: K98450-129-R-PDC complex spheroid growth, percent test/control
Test: Anticancer human tumor K98450-129-R-PDC patient-derived colon adenocarcinoma cell line growth inhibition [RAS]
Details: for viability, T/C: stronger effect = lower value; for IC50: curve of compound
Description: RAS pathway inhibitors in Combinations in Complex Spheroids
A high-throughput screen of multi-cell type tumor spheroids was designed to identify active combinations of RAS pathway inhibitors and targeted small molecules. Complex spheroids include a stromal component modeled by human endothelial cells (HUVEC) and fibroblasts modeled by human mesenchymal stem cells (MSCs). The concentration ranges selected for each drug and investigational agent were based upon clinically achievable concentrations if the clinical Cmax of the agent was known.
Compounds. The drugs and investigational agents: abemaciclib (NSC768073), cobimetinib (NSC768068), divarasib (GDC6063, NSC841802), docetaxel (NSC628503), GDC-1971 (RLY-1971, NSC841576), gemcitabine (NSC613327), inavolisib (NSC800729), ipatasertib (NSC767898), KB-0742 (NSC834161), MRTX-1133 (NSC836407), osimertinib (NSC779217), RMC-4630 (NSC839698), RMC-6236 (NSC851965), RMC-6291 (NSC852671), Ro-3306 (NSC812927), sapanisertib (NSC764658), SN-38 (NSC673596), staurosporine (NSC755774), SY5609 (NSC837396), and tovorafenib (DAY101, NSC766906), were obtained from the National Cancer Institute (NCI) Developmental Therapeutics Program Chemical Repository. The FDA-approved anticancer drug set is available from the NCI Developmental Therapeutics Program. […] The stock solutions were prepared in dimethyl sulfoxide (DMSO, Sigma-Aldrich, St. Louis, MO, cat. D2650) at 800-fold the tested concentration and stored at -70 degrees C prior to their use. All drugs and investigational agents were tested over a range starting from a high concentration at or near the clinical Cmax and decreasing in half-log increments. If the clinical Cmax for an agent had not been determined, the highest concentration tested was 10 microM.
Cell Culture. All cells were maintained in an incubator at 37 degrees C and 5% CO2 with 95% humidity. The PDC lines were cultured according to standard operating procedures established by the NCI PDMR. All PDCs were thawed and cultured in Matrigel-coated flasks prepared with a working solution of 1X Ham's F-12 nutrient mix, without supplementation (Invitrogen, Waltham, MA, cat. 11765054), 100 U/mL penicillin-streptomycin (Invitrogen, cat. 15140122), and 2.5% Matrigel (Corning Inc., Corning, NY, cat. 354248) for the first three passages. The 362531-283-R-J2-PDC and 782815-120-R-J1-PDC lines were cultured in 6C/Colon 1B media, which includes advanced DMEM/F-12 (Thermo Fisher Scientific, cat. 12634028), 10 mM HEPES (Thermo Fisher Scientific, cat. 15630080), 1X GlutaMAX supplement (Thermo Fisher Scientific, cat. 35050061), 0.1 mg/mL primocin (InvivoGen, San Diego, CA, cat. ant-pm-2), 10% defined fetal bovine serum, heat inactivated (HyClone Laboratories Inc., Logan, UT, cat. SH30070.03HI), 50% L-WRN conditioned media (ATCC, cat. CRL-3276), 1.25 mM N-Acetyl-L-cysteine (Sigma-Aldrich, cat. A9165), 10 mM nicotinamide (Sigma-Aldrich, cat. N0636), 1X B-27 supplement (Thermo Fisher Scientific, cat. 17504044), 1X N-2 supplement (Thermo Fisher Scientific, cat. 17502048), 50 ng/mL human EGF (Thermo Fisher Scientific, cat. PHG0311), and 10 microM Y-27632 dihydrochloride (Tocris Bioscience, cat. 1254). The K12877-001-R-J1-PDC line was cultured in 6I media, which includes all 6C/Colon 1B media plus 10 ng/mL human FGF-10 (PeproTech, cat. 100-26), 1 ng/mL human FGF-2 (PeproTech, cat. 100-18B), 1 µM prostaglandin E2 (Tocris Bioscience, cat. 2296), […] hydrocortisone (Sigma-Aldrich, cat. H4001), and […] bovine insulin (Sigma-Aldrich, cat. I6634). The K86415-001-R-J1-PDC line was cultured in 6D media, which includes all 6C/Colon 1B media components minus the L-WRN conditioned media. The 485176-168-R4-J1-PDC was cultured in PANC media, which includes all 6C/Colon 1B media plus 100 ng/mL human FGF-10 (PeproTech, cat. 100-26), 500 nM SB-431542 (Selleckchem, cat. S1067), and 10 nM gastrin (Tocris Bioscience, cat. 3006). […]
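Note: spheroids exposed to agents for seven days before the viability readout.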
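Throughout, for viability, T/C: luminescence used as a proxy for viable cell amount.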

| Compound | viability, T/C (compound 0.0316 µM) | viability, T/C (compound 0.316 µM) | viability, T/C (compound 1 µM) | viability, T/C (compound 3.16 µM) | viability, T/C (compound 10 µM) | viability, T/C (compound 0.1 µM) | IC50 |
| --- | --- | --- | --- | --- | --- | --- | --- |
| CC(=O)OC12COC1CC(O)C1(C)C(=O)C(O)C3=C(C)C(OC(=O)C(O)C(NC(=O)OC(C)(C)C)c4ccccc4)CC(O)(C(OC(=O)c4ccccc4)C21)C3(C)C (centres undefined) | 104% [middle of 4 runs] | 65.8% [middle of 4 runs] | 50.8% [middle of 4 runs] | 42.5% [middle of 4 runs] | 43.9% [middle of 4 runs] | – | – |
| CC(C)NCC(C(=O)N1CCN(c2ncnc3c2C(C)CC3O)CC1)c1ccc(Cl)cc1 (centres undefined) | 103% [middle of 4 runs] | 104% (2×) and 111% and 88.1% | 102% [middle of 4 runs] | 104% [middle of 4 runs] | 101% [middle of 4 runs] | 97.1% [middle of 4 runs] | > 10 µM |
| CC1(O)CCCC1n1c(=O)c(C(F)F)cc2cnc(NC3CCN(S(C)(=O)=O)CC3)nc21 (centres undefined) | 102% (2×) and 99.8% and 90.2% | 91.1% [middle of 4 runs] | 79% [middle of 4 runs] | 79% [middle of 4 runs] | 73.3% [middle of 4 runs] | 95.5% [middle of 4 runs] | > 10 µM |
| CCC(CC)c1cc(NC2CCC(N)C2)n2nccc2n1 (centres undefined) | 99.1% [middle of 4 runs] | 99.2% [middle of 4 runs] | 102% (2×) and 98% and 94% | 90.9% [middle of 4 runs] | 17.7% [middle of 4 runs] | – | 5.89 µM [middle of 4 runs] |
| C[C@@H](NC(=O)c1ncnc(N)c1Cl)c1ncc(C(=O)Nc2cc(C(F)(F)F)c(Cl)cn2)s1 | 110% [middle of 4 runs] | 122% [middle of 4 runs] | 126% [middle of 4 runs] | – | 106% [middle of 4 runs] | – | > 10 µM |
| Cc1nc(N2CCC3(CC2)COC(C)C3N)c(CO)nc1Sc1ccnc(N)c1Cl (centres undefined) | 96.9% [middle of 4 runs] | 86.5% [middle of 4 runs] | 77.2% [middle of 4 runs] | 53.1% [middle of 4 runs] | 28.8% [middle of 4 runs] | 92.8% [middle of 4 runs] | 3.66 µM [middle of 4 runs] |
| NC1c2ccccc2OC12CCN(c1cnc3c(N4CCCc5ncccc54)n[nH]c3n1)CC2 (centres undefined) | 90.2% [middle of 4 runs] | 39.9% [middle of 4 runs] | 25.4% [middle of 4 runs] | 19.4% [middle of 4 runs] | 25% [middle of 4 runs] | 67.2% [middle of 4 runs] | 193 nM [middle of 4 runs] |
